These sequences were tested on mitochondria or chloroplast of Chlamydomonas reinhardtii (assay: Subcellular localization of Venus reporter by epifluorescence microscopy (manual targeting assignment)). Details: C-terminal element of RCA1-cTP added to the named peptide; Figure 2 rows E and F; bare name = K and R versions.
Assay type: cell-based
Excerpt: In a bid to keep peptidase recognition sites intact, C-terminal elements were designed to start 10 residues upstream of the cleavage site, even though this slightly truncates TP helices. Peptides carrying the 15-amino-acid cTP N-terminus (cTP-N) will be denoted ^cP. Similarly, peptides with C-terminal elements from RCA1-cTP (cTP-C) or CAG2-mTP (mTP-C) will be denoted P^c or P^m, respectively. Peptide variants are used to drive the subcellular localization of a Venus fluorescent reporter protein, which was assessed using fluorescence microscopy; in Figure 2, an executive overview of observed Venus localization is presented for all constructs. […] Here, we use automated image segmentation to validate our subcellular localization assessment (Supplemental Figure 2, Supplemental text). […] The reader will be asked to return to Figure 2 throughout, with Figures 3 and 4 providing selected micrographs as examples highlighting particular points of interest.
Chlamydomonas TP sequences were amplified from genomic DNA extracted from strain T222+ (CC-5101). Templates for codon-optimized HA-RAMP, RP, and R→K modified TP sequences were obtained by gene synthesis (Eurofins Genomics). Correct assembly was verified by sequencing (Eurofins Genomics). Linear transformation cassettes were generated through restriction digestion with EcoRV (New England Biolabs).
Constructs were transformed into wild-type strain T222+ (CC-5101) using a protocol described previously ([Onishi and Pringle, 2016]), except using 4 μl of DNA at 2 μg/μl.
Strains with suspected mitochondrial targeting were treated with 0.1 μM MitoTracker Red CMXRos (Thermo Fisher Scientific) in growth medium for 30 min in the dark and washed with TAP prior to taking images.
Legend for Fig. S3 – S20. Three independent transformant lines (Strains 1-3) are shown for each combination of modifications (A-L), represented by a cartoon and a shorthand description (cf. Fig.
2). Where a construct was interpreted as generating reporter localization in mitochondria or […]
Epifluorescence microscopy images of typical cells for each strain are shown. MitoTracker fluorescence, false-coloured in cyan, indicates the position of mitochondria (although parts of the cell exterior are sometimes also stained). False-coloured yellow fluorescence from the Venus channel reports on the subcellular localization of the fluorescent reporter. Chlorophyll autofluorescence, shown in magenta, indicates the location of the chloroplast. Scale bars are 5µm. Brightness (Br.) was adjusted for clarity: fluorescence intensity values were restricted to the range shown for each channel by matching coloured rectangles. Intensity scales to 0 at the bottom of the panel, and to 65535 at the top.
On the right-hand side, quantitative information associated with each construct is shown. Data was normalized such that averages range from 0 to 1 across all constructs (cf. Fig S2). Individual cell measurements may exceed this range; for clarity, the range shown here is limited to -0.5 to 1.5, with outliers that have more extreme values shown as lying beyond a dashed line. Strain 1 is plotted as circles, strain 2 as squares, and strain 3 as diamonds. Venus: Fluorescence plate reader data of transformants screened for this construct (Venus fluorescence, accounting for cell density using linear regression of OD750 and chlorophyll fluorescence trained on ‘no venus’ control transformants). Transformants that were not selected after screening are shown as small grey circles. A colour code ranging from white (low Venus fluorescence) to black (high Venus fluorescence) is used for strains 1-3 and the average thereof. Automated image quantification data: pyr/chl: Venus channel signal in the pyrenoid relative to in the chlorophyll region; mt/cell: Venus channel signal in mitochondria relative to the whole cell. Each point corresponds to a single cell.
The colour code code is the same as that below distributions in Fig. S2, i.e. blue highlights the […]

| Sequence | chloroplast targeting upon addition of cTP-C (P^c) |
| --- | --- |
| KYYGNGVSCNKKGCSVDWGKAIGIIGNNAAANLTTGGKAGWKG [EHF, enterocin HF, HA-RAMP antimicrobial peptide, reference compound] | enabled chloroplast targeting |

Same assay, conditions: Figure 2; bare name = K and R versions

| Sequence | targeting when combining cTP-N with mTP-C (^cP^m) |
| --- | --- |
| KYYGNGVSCNKKGCSVDWGKAIGIIGNNAAANLTTGGKAGWKG [EHF, enterocin HF, HA-RAMP antimicrobial peptide, reference compound] | chloroplast targeting |

Same assay, conditions: manual targeting assignment of the Venus reporter construct in Chlamydomonas: Neither / Mitochondria / Chloroplast / Dual, (partial) = partial targeting

| Sequence | Localisation |
| --- | --- |
| MDEVNNDNCRIRFRGDISSESDRMNINYLTQTAESFRGVSSQFFDAPNGPSVKQVLIEDEW [RP2.R.m] | Neither |
| MQVTMKSSAVSGQRVALWRTMLRRLGTMALHAGRAAFGAAADTISQLTQTAESFRGVSSQFFDAPNGPSVKQVLIEDEW [c.DDM.R.m] | Neither |
| MQVTMKSSAVSGQRVMGWIRDFGRRIERVGQHTRDATIQTIAVAQQAANVAATLRGLTQTAESFRGVSSQFFDAPNGPSVKQVLIEDEW [c.S1D.R.m] | Dual |
| MQVTMKSSAVSGQRVDEVNNDNCRIRFRGDISSESDRMNINYSVRRAQLQVVASSRKQMGRWRSIDAGVDASDDQ [c.RP2.R.c] | Neither |
| MGGARVATR [CH.R] | Neither |
| MLTQTAESFRGVSSQFFDAPNGPSVKQVLIEDEW [-.m] | Neither |
| MGGARVATRSVRRAQLQVVASSRKQMGRWRSIDAGVDASDDQ [CH.R.c] | Chloroplast |
| MQVTMKSSAVSGQRVGRIPVRAIRRAGAAIGRGLRAINIASTAHDVYSFFRPRHRRRLTQTAESFRGVSSQFFDAPNGPSVKQVLIEDEW [c.SIM.R.m] | Chloroplast |
| MGRIPVRAIRRAGAAIGRGLRAINIASTAHDVYSFFRPRHRRR [SIM.R] | Neither |
| MDEVNNDNCRIRFRGDISSESDRMNINYSVRRAQLQVVASSRKQMGRWRSIDAGVDASDDQ [RP2.R.c] | Neither |
| MGLLLDTLRGAARDIAGIALERLRCRITGCRP [R2G.R] | Mitochondria (partial) |
| MQVTMKSSAVSGQRVGRIPVRAIRRAGAAIGRGLRAINIASTAHDVYSFFRPRHRRRSVRRAQLQVVASSRKQMGRWRSIDAGVDASDDQ [c.SIM.R.c] | Chloroplast |
| MRYYGNGVSCNRRGCSVDWGRAIGIIGNNAAANLTTGGRAGWRGLTQTAESFRGVSSQFFDAPNGPSVKQVLIEDEW [EHF.R.m] | Chloroplast |

Same assay, conditions: peptide-Venus reporter construct expressed in Chlamydomonas reinhardtii; manual targeting assignment (Neither / Mitochondria / Chloroplast / Dual; partial = partial targeting)

| Sequence | Localisation |
| --- | --- |
| MQVTMKSSAVSGQRVMKYYGNGVHCTKSGCSVNWGEAFSAGVHRLANGGNGFWLTQTAESFRGVSSQFFDAPNGPSVKQVLIEDEW [c.LCA.K.m] | Chloroplast |
| MFLPLLAGLAANFLPRIFCRITRRCLTQTAESFRGVSSQFFDAPNGPSVKQVLIEDEW [B1E.R.m] | Neither |
| MFLPLLAGLAANFLPRIFCRITRRC [B1E.R] | Neither |
| MQVTMKSSAVSGQRVMVNYGNGVSCSRTRCSVNWGIITHQAFRVTSGVASGSVRRAQLQVVASSRKQMGRWRSIDAGVDASDDQ [c.B15.R.c] | Chloroplast |
| MFLPLLAGLAANFLPKIFCKITRKCSVRRAQLQVVASSRKQMGRWRSIDAGVDASDDQ [B1E.K.c] | Neither |
| MVNYGNGVSCSKTKCSVNWGIITHQAFRVTSGVASG [B15.K] | Neither |
| MQVTMKSSAVSGQRVGIGRFLHSARRFGRAFVGEIMNSLTQTAESFRGVSSQFFDAPNGPSVKQVLIEDEW [c.MII.R.m] | Dual |
| MQVTMKSSAVSGQRVMKYYGNGVHCTRSGCSVNWGEAFSAGVHRLANGGNGFWLTQTAESFRGVSSQFFDAPNGPSVKQVLIEDEW [c.LCA.R.m] | Neither |
| MGIGKFLHSAKKFGKAFVGEIMNS [MII.K] | Mitochondria (partial) |
| MGIGRFLHSARRFGRAFVGEIMNS [MII.R] | Mitochondria |
| MVNYGNGVSCSRTRCSVNWGIITHQAFRVTSGVASG [B15.R] | Neither |
| MQVTMKSSAVSGQRVMGLFSRFNRRRIRSGLIRIIRTAGREAGLEALRTGIDVIGCRIRGECSVRRAQLQVVASSRKQMGRWRSIDAGVDASDDQ [c.E1S.R.c] | Chloroplast |
| MQVTMKSSAVSGQRVMKYYGNGVHCTKSGCSVNWGEAFSAGVHRLANGGNGFWSVRRAQLQVVASSRKQMGRWRSIDAGVDASDDQ [c.LCA.K.c] | Chloroplast (partial) |
| MGLFSKFNKKKIKSGLIKIIKTAGKEAGLEALRTGIDVIGCKIKGECSVRRAQLQVVASSRKQMGRWRSIDAGVDASDDQ [E1S.K.c] | Neither |
| MQVTMKSSAVSGQRVGIGKFLHSAKKFGKAFVGEIMNSLTQTAESFRGVSSQFFDAPNGPSVKQVLIEDEW [c.MII.K.m] | Mitochondria (partial) |
| MQVTMKSSAVSGQRVMKYYGNGVHCTKSGCSVNWGEAFSAGVHRLANGGNGFW [c.LCA.K] | Neither |
| MALWMTLLKKVLKAAAKAALNAVLVGANA [DS4.K] | Neither |
| MQVTMKSSAVSGQRVALWMTLLRRVLRAAARAALNAVLVGANA [c.DS4.R] | Neither |
| MALWMTLLRRVLRAAARAALNAVLVGANASVRRAQLQVVASSRKQMGRWRSIDAGVDASDDQ [DS4.R.c] | Neither |

Same assay, conditions: targeting of the Venus reporter fused to the peptide, expressed in Chlamydomonas reinhardtii; manual assignment from epifluorescence microscopy; full or partial

| Sequence | Localisation |
| --- | --- |
| MQVTMKSSAVSGQRVMGKIPVKAIKKAGAAIGKGLRAINIASTAHDVYSFFKPKHKKKSVRRAQLQVVASSRKQMGRWRSIDAGVDASDDQ [c.SIM.K.c] | Chloroplast |
| MQVTMKSSAVSGQRVMWLSKTAKKLENSAKKRISEGIAIAIKGGSR [c.CP3.K] | Neither |
| MQVTMKSSAVSGQRVGIGRFLHSARRFGRAFVGEIMNSSVRRAQLQVVASSRKQMGRWRSIDAGVDASDDQ [c.MII.R.c] | Chloroplast |
| MNIVVYWNFTLWHMDINARNAGCDGEGSLTQTAESFRGVSSQFFDAPNGPSVKQVLIEDEW [RP1.K.m] | Neither |
| MKYYGNGVSCNKKGCSVDWGKAIGIIGNNAAANLTTGGKAGWKGLTQTAESFRGVSSQFFDAPNGPSVKQVLIEDEW [EHF.K.m] | Neither |
| MQVTMKSSAVSGQRVMWLSKTAKKLENSAKKRISEGIAIAIKGGSRLTQTAESFRGVSSQFFDAPNGPSVKQVLIEDEW [c.CP3.K.m] | Chloroplast |
| MQVTMKSSAVSGQRVNIVVYWNFTLWHMDINARNAGCDGEGS [c.RP1.K] | Neither |
| MQVTMKSSAVSGQRVMGKIPVKAIKKAGAAIGKGLRAINIASTAHDVYSFFKPKHKKKLTQTAESFRGVSSQFFDAPNGPSVKQVLIEDEW [c.SIM.K.m] | Chloroplast |
| MQVTMKSSAVSGQRVMALWKTMLKKLGTMALHAGKAAFGAAADTISQ [c.DDM.K] | Neither |
| MDEVNNDNCRIKFKGDISSESDKMNINYLTQTAESFRGVSSQFFDAPNGPSVKQVLIEDEW [RP2.K.m] | Neither |
| MQVTMKSSAVSGQRVMGLLLDTLKGAAKDIAGIALEKLKCKITGCKPSVRRAQLQVVASSRKQMGRWRSIDAGVDASDDQ [c.R2G.K.c] | Mitochondria (partial) |
| MQVTMKSSAVSGQRVMGLLLDTLKGAAKDIAGIALEKLKCKITGCKPLTQTAESFRGVSSQFFDAPNGPSVKQVLIEDEW [c.R2G.K.m] | Mitochondria |
| MGLLLDTLKGAAKDIAGIALEKLKCKITGCKPSVRRAQLQVVASSRKQMGRWRSIDAGVDASDDQ [R2G.K.c] | Neither |
| MQVTMKSSAVSGQRVMWLSRTARRLENSARRRISEGIAIAIRGGSR [c.CP3.R] | Chloroplast (partial) |
| MQVTMKSSAVSGQRVFLPLLAGLAANFLPRIFCRITRRC [c.B1E.R] | Mitochondria |
| MQVTMKSSAVSGQRVAAAAAAAASVRRAQLQVVASSRKQMGRWRSIDAGVDASDDQ [c.AA.c] | Chloroplast (partial) |
| MQVTMKSSAVSGQRVFLPLLAGLAANFLPRIFCRITRRCLTQTAESFRGVSSQFFDAPNGPSVKQVLIEDEW [c.B1E.R.m] | Dual |
